The experiment deals with T1, KAT6A (Homo sapiens, UniProt Q92794).
T1 construct: purchased active motife (Active Motif) 81223
T1 sequence (Q92794 whole entry): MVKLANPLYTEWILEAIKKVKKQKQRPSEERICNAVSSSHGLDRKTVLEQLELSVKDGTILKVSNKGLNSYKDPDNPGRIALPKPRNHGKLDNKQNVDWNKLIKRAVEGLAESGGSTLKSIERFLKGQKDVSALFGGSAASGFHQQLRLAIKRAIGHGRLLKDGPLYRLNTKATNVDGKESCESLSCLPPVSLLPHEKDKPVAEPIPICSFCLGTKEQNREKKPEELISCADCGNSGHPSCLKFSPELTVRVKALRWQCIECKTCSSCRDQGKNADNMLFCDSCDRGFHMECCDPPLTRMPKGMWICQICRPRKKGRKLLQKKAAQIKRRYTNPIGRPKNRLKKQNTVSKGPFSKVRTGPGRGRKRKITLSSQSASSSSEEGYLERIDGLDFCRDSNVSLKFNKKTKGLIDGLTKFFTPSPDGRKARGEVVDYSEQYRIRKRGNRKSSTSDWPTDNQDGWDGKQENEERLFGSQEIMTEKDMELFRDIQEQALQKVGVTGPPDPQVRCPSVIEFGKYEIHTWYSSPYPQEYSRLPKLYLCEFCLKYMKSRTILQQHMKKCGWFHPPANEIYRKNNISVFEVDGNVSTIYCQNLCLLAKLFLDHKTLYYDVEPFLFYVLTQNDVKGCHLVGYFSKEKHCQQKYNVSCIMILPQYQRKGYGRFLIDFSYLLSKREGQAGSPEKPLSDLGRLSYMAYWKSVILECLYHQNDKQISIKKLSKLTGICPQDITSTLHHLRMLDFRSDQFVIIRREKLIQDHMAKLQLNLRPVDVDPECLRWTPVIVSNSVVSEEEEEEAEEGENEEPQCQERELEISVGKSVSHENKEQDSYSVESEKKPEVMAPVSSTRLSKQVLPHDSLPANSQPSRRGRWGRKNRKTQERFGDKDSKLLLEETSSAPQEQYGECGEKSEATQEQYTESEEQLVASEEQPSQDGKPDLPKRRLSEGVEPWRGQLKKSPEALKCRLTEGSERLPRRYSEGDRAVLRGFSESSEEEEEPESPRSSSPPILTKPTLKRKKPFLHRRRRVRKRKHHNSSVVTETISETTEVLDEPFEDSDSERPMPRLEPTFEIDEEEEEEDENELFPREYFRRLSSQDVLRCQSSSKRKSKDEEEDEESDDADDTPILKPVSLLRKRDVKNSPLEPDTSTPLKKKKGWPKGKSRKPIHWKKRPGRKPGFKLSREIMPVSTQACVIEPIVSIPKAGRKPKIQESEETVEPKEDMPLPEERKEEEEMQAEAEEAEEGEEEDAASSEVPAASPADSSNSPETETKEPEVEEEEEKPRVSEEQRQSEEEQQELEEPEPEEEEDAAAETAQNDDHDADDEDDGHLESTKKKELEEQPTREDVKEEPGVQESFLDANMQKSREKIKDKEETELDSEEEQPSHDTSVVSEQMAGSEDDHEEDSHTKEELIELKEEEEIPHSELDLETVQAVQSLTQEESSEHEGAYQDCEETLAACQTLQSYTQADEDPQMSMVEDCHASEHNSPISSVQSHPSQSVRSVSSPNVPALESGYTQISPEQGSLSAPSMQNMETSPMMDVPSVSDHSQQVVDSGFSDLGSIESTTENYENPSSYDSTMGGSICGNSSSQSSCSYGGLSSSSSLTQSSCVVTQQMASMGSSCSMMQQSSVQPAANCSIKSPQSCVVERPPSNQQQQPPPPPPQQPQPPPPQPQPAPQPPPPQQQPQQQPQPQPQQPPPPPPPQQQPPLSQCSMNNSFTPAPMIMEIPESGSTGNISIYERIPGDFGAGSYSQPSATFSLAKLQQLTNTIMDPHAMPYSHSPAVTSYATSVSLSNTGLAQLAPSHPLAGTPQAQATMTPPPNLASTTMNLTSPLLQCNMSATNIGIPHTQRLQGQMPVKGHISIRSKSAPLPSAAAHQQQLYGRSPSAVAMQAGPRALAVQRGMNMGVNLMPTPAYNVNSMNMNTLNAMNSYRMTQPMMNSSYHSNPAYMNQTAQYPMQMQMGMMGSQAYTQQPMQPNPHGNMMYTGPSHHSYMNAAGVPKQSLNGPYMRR
In words: Enzymatic activity assay for KAT6A acetyltransferase (TR-FRET, acetylation of histone substrate H3). It is filed as biochemical. Here is the method: The acetylation effect of KAT6A on histone substrate H3 was determined using the TR-FRET (time-resolved fluorescence resonance energy transfer) method.
• 1) The compounds prepared in the examples of the present disclosure were each dissolved in dimethylsulfoxide to give solutions at a concentration of 10 mmol/L, and then the solutions were diluted to 0.2 mmol/L, i.e., 1 µL of the compound was added to 49 µL of DMSO, and 3-fold dilution was performed to give 10 concentrations. • 2) 50 nL of the test compounds (example compounds) were transferred to 384 reaction plates using Echo, two replicates for each compound, and the plates were centrifuged at a rotation speed of 1000 rpm for 1 min, the final concentration of dimethylsulfoxide (DMSO) being 0.5%. • 3) 2.5 µL of the reaction mixtures obtained in step 2 was added to the 384 reaction plates in step 2), and the plates were centrifuged at 1000 rpm for 1 min and incubated at 25 °C for 10 min. • 4) 2.5 µL of Bio-H3&AcCOA (acetyl-CoA) reaction solution was added to the 384 reaction plates in step 3), and the plates were centrifuged at a rotation speed of 1000 rpm for 1 min and incubated at 25 °C for 90 min. • 5) 5 µL of Eu-Ab& Ulight-SA detection solution was added to the 384 reaction plates in step 4), and the plates were centrifuged at 1000 rpm for 1 min and incubated at 25 °C for 60 min. • 6) The HTRF […] signals were read using a BMG high-throughput drug-screening multi-mode microplate reader.
The acetylation level of the histone H3 was analyzed by the GraphPad Prism 8 software. The reading of the negative control (0.5% DMSO wells) was set as 0% inhibition rate, and the reading of the positive control (wells with the highest concentration of the control compound) was set as 100% inhibition rate. The inhibition rates were calculated, and then IC50 values (half maximal inhibitory concentration) of test compounds were obtained by using a software nonlinear fitting formula; [formula]
Datapositive control: mean of positive control well values; Datanegative control: mean of negative control well values. Table 3. Enzymatic inhibitory activity of example compounds
(In general: Time-resolved FRET reads energy transfer from a long-lived donor to a nearby acceptor.)
One may read the IC50 as the point on the concentration scale where inhibition reaches its midpoint. Turning to `COc1nc(Cn2cccn2)cc2onc(NS(=O)(=O)c3ccc4ncsc4c3)c12` [Example 55, N-(6-((1H-Pyrazol-1-yl)methyl)-4-methoxyisoxazolo[4,5-c]pyridin-3-yl)benzothiazole-6-sulfonamide], the midpoint of inhibition, the IC50, lay at 8.79 nM. Consider `COc1ccc(S(=O)(=O)Nc2noc3cc(Cn4cccn4)nc(OC)c23)c2occc12` [Example 64, N-(6-((1H-Pyrazol-1-yl)methyl)-4-methoxyisoxazolo[4,5-c]pyridin-3-yl)-4-methoxybenzofuran-7-sulfonamide], for which the half-maximal inhibitory concentration (IC50) was found to be 8.85 nM. Compound `COc1ccc(S(=O)(=O)Nc2noc3cc(Cn4cccn4)nc(OC)c23)c2c1CCCO2` [Example 95, N-(6-((1H-Pyrazol-1-yl)methyl)-4-methoxyisoxazolo[4,5-c]pyridin-3-yl)-5-methoxy-3,4-dihydro-1H-benzopyran-8-sulfonamide] showed an IC50 of 1.63 nM. Consider `COc1ccc2ccoc2c1S(=O)(=O)Nc1noc2cc(Cn3ccc(C)n3)nc(OC)c12` [Example 71, 6-Methoxy-N-(4-methoxy-6-((3-methyl-1H-pyrazol-1-yl)methyl)isoxazolo[4,5-c]pyridin-3-yl)benzofuran-7-sulfonamide], for which it took 4.49 nM to reach half-maximal inhibition (IC50).

For `COc1c(Cl)c2c(c(OC)c1S(=O)(=O)Nc1noc3cc(Cn4cccn4)nc(OC)c13)CCC2` [Example 63, N-(6-((1H-Pyrazol-1-yl)methyl)-4-methoxyisoxazolo[4,5-c]pyridin-3-yl)-7-chloro-4,6-dimethoxy-2,3-dihydro-1H-indene-5-sulfonamide], the concentration for half-maximal inhibition (IC50) turned out to be 5.98 nM. For `COc1nc(Cn2cccn2)cc2onc(NS(=O)(=O)c3cccc4nc(C)oc34)c12` [Example 48, N-(6-((1H-Pyrazol-1-yl)methyl)-4-methoxyisoxazolo[4,5-c]pyridin-3-yl)-2-methylbenzo[d]oxazole-7-sulfonamide] the value was 22.7 nM; for `COc1nc(Cn2nccn2)cc2onc(NS(=O)(=O)c3cccc4c3ccn4C)c12` [Example 21, N-(6-((2H-1,2,3-Triazol-2-yl)methyl)-4-methoxyisoxazolo[4,5-c]pyridin-3-yl)-1-methyl-1H-indole-4-sulfonamide], 75.9 nM; for `COc1cc2c(c(S(=O)(=O)Nc3noc4cc(Cn5cccn5)nc(OC)c34)c1)OC(C)(C)CC2` [Example 99], 2.79 nM. For `COc1ccc2cc(C)oc2c1S(=O)(=O)Nc1noc2cc(Cn3cccn3)nc(OC)c12` [Example 65, N-(6-((1H-Pyrazol-1-yl)methyl)-4-methoxyisoxazolo[4,5-c]pyridin-3-yl)-6-methoxy-2-methylbenzofuran-7-sulfonamide] the value was 2.01 nM; for `COc1cc2c(cc1S(=O)(=O)Nc1noc3cc(Cn4cccn4)nc(OC)c13)OCC2(C)C` [Example 101, N-(6-((1H-pyrazol-1-yl)methyl)-4-methoxyisoxazolo[4,5-c]pyridin-3-yl)-5-methoxy-3,3-dimethyl-2H-benzofuran-6-sulfonamide], 2.04 nM. Compound `COc1ccc2c(c1S(=O)(=O)Nc1noc3cc(Cn4cccn4)nc(OC)c13)CCC2` [Example 77, N-(6-((1H-Pyrazol-1-yl)methyl)-4-methoxyisoxazolo[4,5-c]pyridin-3-yl)-5-methoxy-2,3-dihydro-1H-indene-4-sulfonamide] yielded a concentration for half-maximal inhibition (IC50) of 1.91 nM. For `COc1ccc2c(c1S(=O)(=O)Nc1noc3cc(Cn4cccn4)nc(OC)c13)OCCO2` [Example 73, N-(6-((1H-Pyrazol-1-yl)methyl)-4-methoxyisoxazolo[4,5-c]pyridin-3-yl)-6-methoxy-2,3-dihydrobenzo[b][1,4]dioxine-5-sulfonamide] the value was 0.97 nM.

The compound `COc1nc(Cc2ccccn2)cc2onc(NS(=O)(=O)c3cccc4c3OCCO4)c12` [Example 32, N-(4-Methoxy-6-(pyridin-2-ylmethyl)isoxazolo[4,5-c]pyridin-3-yl)-2,3-dihydrobenzo[b][1,4]dioxine-5-sulfonamide] registered a half-maximal inhibitory concentration (IC50) of 34.7 nM. For `COc1ccc2occ(S(=O)(=O)Nc3noc4cc(Cn5cccn5)nc(OC)c34)c2c1` [Example 78, N-(6-((1H-Pyrazol-1-yl)methyl)-4-methoxyisoxazolo[4,5-c]pyridin-3-yl)-5-methoxybenzofuran-3-sulfonamide] the value was 7.97 nM. To `COc1nc(Cn2cccn2)cc2onc(NS(=O)(=O)c3cc(C4CC4)cc4c3OCCC4)c12` [Example 106, N-(6-((1H-pyrazol-1-yl)methyl)-4-methoxyisoxazolo[4,5-c]pyridin-3-yl)-6-cyclopropyl-3,4-dihydro-1H-benzopyran-8-sulfonamide] belongs 0.94 nM; to `COc1nc(Cn2cccn2)cc2onc(NS(=O)(=O)c3cccc4c3OCCC4)c12` [Example 7, N-(6-((1H-Pyrazol-1-yl)methyl)-4-methoxyisoxazolo[4,5-c]pyridin-3-yl)-3,4-dihydro-1H-benzopyran-8-sulfonamide], 5.68 nM; to `COc1nc(Cn2cccn2)cc2onc(NS(=O)(=O)c3ccc4c(c3)CCCO4)c12` [Example 50, N-(6-((1H-Pyrazol-1-yl)methyl)-4-methoxyisoxazolo[4,5-c]pyridin-3-yl)-3,4-dihydro-1H-benzopyran-6-sulfonamide], 8.67 nM. To `COc1cc2c(cc1S(=O)(=O)Nc1noc3cc(C(F)(F)n4cccn4)nc(OC)c13)CCCC2` [Example 91, N-(6-(Difluoro(1H-pyrazol-1-yl)methyl)-4-methoxyisoxazolo[4,5-c]pyridin-3-yl)-3-methoxy-5,6,7,8-tetrahydronaphthalene-2-sulfonamide] belongs 17.6 nM; to `COc1ccc2ccoc2c1S(=O)(=O)Nc1noc2cc(Cn3cc(C)cn3)nc(OC)c12` [Example 83, 6-Methoxy-N-(4-methoxy-6-((4-methyl-1H-pyrazol-1-yl)methyl)isoxazolo[4,5-c]pyridin-3-yl)benzofuran-7-sulfonamide], 4.12 nM; to `COc1nc(Cn2cccn2)cc2onc(NS(=O)(=O)c3cc(C#N)cc4c3OCCC4)c12` [Example 107, N-(6-((1H-pyrazol-1-yl)methyl)-4-methoxyisoxazolo[4,5-c]pyridin-3-yl)-6-cyano-3,4-dihydro-1H-benzopyran-8-sulfonamide], 5.86 nM.

Compound `COc1nc(Cn2cccn2)cc2onc(NS(=O)(=O)c3cccc4occc34)c12` [Example 47, N-(6-((1H-Pyrazol-1-yl)methyl)-4-methoxyisoxazolo[4,5-c]pyridin-3-yl)benzofuran-4-sulfonamide] returned an IC50 of 4.67 nM. To `COc1nc(C(F)(F)n2cccn2)cc2onc(NS(=O)(=O)c3cccc4c3OCC4)c12` [Example 17, N-(6-(Difluoro(1H-pyrazol-1-yl)methyl)-4-methoxyisoxazolo[4,5-c]pyridin-3-yl)-2,3-dihydrobenzofuran-7-sulfonamide] belongs 8.67 nM. In the case of `COc1nc(Cn2cccn2)cc2onc(NS(=O)(=O)c3cccc4c3CCC4)c12` [Example 26, N-(6-((1H-Pyrazol-1-yl)methyl)-4-methoxyisoxazolo[4,5-c]pyridin-3-yl)-2,3-dihydro-1H-indene-4-sulfonamide], the IC50 was found to be 21.8 nM.

`COc1ccc2c(c1S(=O)(=O)Nc1noc3cc(Cn4cccn4)nc(OC)c13)OC(C)(C)O2` [Example 74, N-(6-((1H-Pyrazol-1-yl)methyl)-4-methoxyisoxazolo[4,5-c]pyridin-3-yl)-5-methoxy-2,2-dimethyl-1,3-benzodioxolane-4-sulfonamide] registered a concentration for half-maximal inhibition (IC50) of 1.77 nM.

Compound `[2H]c1cc2ccc(OC)c(S(=O)(=O)Nc3noc4cc(Cn5cccn5)nc(OC)c34)c2o1` [Example 102, N-(6-((1H-pyrazol-1-yl)methyl)-4-methoxyisoxazolo[4,5-c]pyridin-3-yl)-6-methoxybenzofuran-7-sulfonamide-2-d] gave a concentration for half-maximal inhibition (IC50) of 0.83 nM. Regarding `COc1nc(Cn2cccn2)cc2onc(NS(=O)(=O)c3ccc4occc4c3)c12` [Example 53, N-(6-((1H-Pyrazol-1-yl)methyl)-4-methoxyisoxazolo[4,5-c]pyridin-3-yl)benzofuran-5-sulfonamide], the IC50 stood at 4.56 nM. In turn, `COc1nc(Cn2nccn2)cc2onc(NS(=O)(=O)c3cccc4c3OCCO4)c12` [Example 29, N-(6-((2H-1,2,3-Triazol-2-yl)methyl)-4-methoxyisoxazolo[4,5-c]pyridin-3-yl)-2,3-dihydrobenzo[b][1,4]dioxine-5-sulfonamide] returned an IC50 of 1.57 nM. To `COc1nc(Cn2cccn2)cc2onc(NS(=O)(=O)c3ccc(C#CC4CC4)c4ccoc34)c12` [Example 90, N-(6-((1H-Pyrazol-1-yl)methyl)-4-methoxyisoxazolo[4,5-c]pyridin-3-yl)-4-(cyclopropylethynyl)benzofuran-7-sulfonamide] belongs 7.18 nM; to `COc1ccc2c(c1S(=O)(=O)Nc1noc3cc(Cn4cccn4)nc(OC)c13)OCO2` [Example 58, N-(6-((1H-Pyrazol-1-yl)methyl)-4-methoxyisoxazolo[4,5-c]pyridin-3-yl)-5-methoxy-1,3-benzodioxole-4-sulfonamide], 0.66 nM.

Values taken from patent EP4692094A1 (Beijing Konruns Pharmaceutical Co., Ltd., priority 2023, dated 2024).
